According to publication PMC5376056, “Developing Hypothetical Inhibition Mechanism of Novel Urea Transporter B Inhibitor” (Scientific Reports, 2014):

Experiments:
[1] = biological target: T1, UT-B (Mus musculus, UniProt Q8VHL0); assay: erythrocyte osmotic lysis assay, mouse erythrocytes; format: cell-based; settings: mean ± s.e.m., n = 3
T1 construct: using erythrocytes, which originally express UT-B; endogenous in cells; host or cells: wild-type mouse erythrocytes (vein blood)
T1 sequence (Q8VHL0 1-384): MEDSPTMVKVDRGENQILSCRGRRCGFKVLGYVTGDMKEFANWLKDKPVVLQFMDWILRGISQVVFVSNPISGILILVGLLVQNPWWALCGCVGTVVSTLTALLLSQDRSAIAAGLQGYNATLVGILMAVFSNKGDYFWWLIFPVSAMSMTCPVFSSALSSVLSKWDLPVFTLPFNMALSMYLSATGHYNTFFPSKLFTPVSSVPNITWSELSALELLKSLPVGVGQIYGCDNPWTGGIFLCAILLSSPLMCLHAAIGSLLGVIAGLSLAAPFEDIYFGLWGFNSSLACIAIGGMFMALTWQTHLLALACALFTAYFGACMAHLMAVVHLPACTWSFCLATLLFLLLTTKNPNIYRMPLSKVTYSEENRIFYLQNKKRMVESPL
Method: (§1) Vein blood was collected from humans, SD rats, wild-type mice or UT-B-null mice as described previously.
(§2) High-throughput screening assay was performed for identification of UT-B inhibitors using erythrocytes, which originally express UT-B as described previously. Erythrocytes were diluted to a hematocrit value of 2% in hyperosmolar PBS containing 1.25 M acetamide and 5 mM glucose. Erythrocyte suspensions were preserved at room temperature for 2 h by periodic pipette mixture. Then, 99 μl erythrocyte suspension from a reservoir was added to each well of a 96-well round-bottom microplate, to which test compounds were added (1 μl, 10 μM final compound concentration, 1% final DMSO concentration). After 6 min of incubation, 20 μl of the erythrocyte suspension was added rapidly to each well of a 96-well black-walled plate containing 180 μl isomolar buffer (PBS containing 1% DMSO) in each well. Erythrocyte lysis was quantified from a single time point measure of absorbance at 710 nm wavelength with a plate reader (BioTek)[27].
(§3) The percentage of erythrocyte lysis in each test well was calculated using control values from the same plate as: % lysis = 100%. (Aneg-Atest)/(Aneg-Apos), where Atest is the absorbance value from a test well. Nonspecific UT-B inhibitor phloretin (Sigma-Aldrich, 700 μM final concentration) was added as an additional positive control.

[2] = biological target: T2, UT-B (Homo sapiens, UniProt Q13336); assay: erythrocyte osmotic lysis assay, human erythrocytes; format: cell-based; settings: mean ± s.e.m., n = 3
T2 construct: using erythrocytes, which originally express UT-B; endogenous in cells; host or cells: human erythrocytes (vein blood)
T2 sequence (Q13336 1-389): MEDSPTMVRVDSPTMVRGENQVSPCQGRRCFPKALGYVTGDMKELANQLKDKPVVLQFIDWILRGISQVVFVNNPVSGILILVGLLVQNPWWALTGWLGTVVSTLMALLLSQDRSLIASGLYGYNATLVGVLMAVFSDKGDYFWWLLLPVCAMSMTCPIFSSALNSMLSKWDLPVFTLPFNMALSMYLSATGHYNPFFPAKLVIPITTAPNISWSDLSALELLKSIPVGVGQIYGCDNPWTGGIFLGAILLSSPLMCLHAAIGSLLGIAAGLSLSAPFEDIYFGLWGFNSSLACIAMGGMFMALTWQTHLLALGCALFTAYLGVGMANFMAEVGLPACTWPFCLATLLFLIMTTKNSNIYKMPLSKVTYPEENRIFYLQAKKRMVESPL
Method: as §1, §2, §3

[3] = biological target: T3, UT-B (Rattus norvegicus, UniProt P97689); assay: erythrocyte osmotic lysis assay, rat erythrocytes; format: cell-based; settings: mean ± s.e.m., n = 3
T3 construct: using erythrocytes, which originally express UT-B; endogenous in cells; host or cells: SD rat erythrocytes (vein blood)
T3 sequence (P97689 1-384): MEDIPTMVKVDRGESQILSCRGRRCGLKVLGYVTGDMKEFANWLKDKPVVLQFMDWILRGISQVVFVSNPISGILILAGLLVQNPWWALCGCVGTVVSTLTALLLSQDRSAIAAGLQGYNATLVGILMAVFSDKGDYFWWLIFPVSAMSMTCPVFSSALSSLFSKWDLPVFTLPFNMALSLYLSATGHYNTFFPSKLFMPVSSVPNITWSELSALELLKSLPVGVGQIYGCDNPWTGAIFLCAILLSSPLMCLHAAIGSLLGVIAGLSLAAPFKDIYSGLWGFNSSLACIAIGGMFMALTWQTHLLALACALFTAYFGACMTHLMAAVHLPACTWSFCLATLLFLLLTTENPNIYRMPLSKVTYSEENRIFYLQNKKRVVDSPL
Method: as §1, §2, §3

[4] = set-up: method as in PMID 23486518; settings: cited from earlier work
[5] = biological target: T1, UT-B; set-up: method as in PMID 23486518; settings: cited from earlier work
[6] = biological target: UT-B; set-up: method as in Ren et al., under review; settings: pIC50 = -log(IC50) + 6; analogues of PU21; ref Ren et al., under review; cited from earlier work
[7] = tested on: UT-B; set-up: method as in PMID 23486518; settings: rabbit; cited from earlier work
[8] = biological target: T2, UT-B; set-up: method as in PMID 23486518; settings: cited from earlier work
[9] = biological target: T3, UT-B; set-up: method as in PMID 23486518; settings: cited from earlier work

SMILES	IC50 [1] [µM]	IC50 [2] [µM]	IC50 [3] [µM]	diuresis activity in vivo [4]	UT-B inhibition activity in vitro [5]	pIC50 [6]	UT-B inhibition activity in vitro [7]	UT-B inhibition activity in vitro [8]	UT-B inhibition activity in vitro [9]
COc1ccc2nc3sc(C(C)=O)c(N)c3cc2c1 [PU21, 1-(3-amino-6-methoxythieno[2,3-b]quinolin-2-yl)ethanone]	4.81 ± 0.4	3.78 ± 0.48	2.62 ± 0.12	–	–	–	–	–	–
CCN(Cc1ccccc1)[C@H](c1cc2c(C)cc(C)cc2[nH]c1=O)c1nnnn1C[C@@H]1CCCO1 [PU168, 3-((R)-(benzyl(ethyl)amino)(1-(((S)-tetrahydrofuran-2-yl)methyl)-1H-tetrazol-5-yl)methyl)-5,7-dimethylquinolin-2(1H)-one]	> 10	0.2 ± 0.03	> 10	–	–	–	–	–	–
Cc1nc2ccc(NC(=O)c3ccco3)cc2c(=O)n1Cc1ccc(Cl)cc1 [PU468, N-(3-(4-chlorobenzyl)-2-methyl-4-oxo-3,4-dihydroquinazolin-6-yl)furan-2-carboxamide]	4.13 ± 0.33	5.63 ± 0.82	3.18 ± 0.24	–	–	–	–	–	–
Cn1c(=O)c2c(nc(SCC(=O)Nc3cccc(O)c3)n2Cc2ccccc2)n(C)c1=O [PU474, 2-((7-benzyl-1,3-dimethyl-2,6-dioxo-2,3,6,7-tetrahydro-1H-purin-8-yl)thio)-N-(3-hydroxyphenyl)acetamide]	> 10	0.28 ± 0.01	> 10	–	–	–	–	–	–
CC(=O)c1sc2nc3ccc(C)cc3cc2c1N [PU-14]	–	–	–	pharmacological diuresis activity	potential inhibition activity	5.454	potential inhibition activity	potential inhibition activity	potential inhibition activity
